Experiments:
[1] = biological target: MNK1a (pre-activated GST-MNK1a) (Homo sapiens (Human), UniProt Q9BUB5); assay: MNK1 in vitro kinase assay (assay 2), Z'-LYTE; assay type: biochemical; details: for inhibition at 1 µM: compound concentration of 1 μM, read-out: Mnk1 % Inh
Excerpt: B. MNK1 In Vitro Kinase Assay (Assay 2)
MNK1 Data can be obtained from the MNK1 Z′-LYTE® assay. The MNK1 Z′-LYTE® screening protocol and assay conditions are also described on www.invitrogen.com.
The assay is described as follows:
The Z′-LYTE® biochemical assay employs a fluorescence-based, coupled-enzyme format and is based on the differential sensitivity of phosphorylated and non-phosphorylated peptides to proteolytic cleavage. The peptide substrate is labeled with two fluorophores—one at each end—that make up a FRET pair.
In the primary reaction, the kinase transfers the gamma-phosphate of ATP to a single tyrosine, serine or threonine residue in a synthetic FRET-peptide. In the secondary reaction, a site-specific protease recognizes and cleaves non-phosphorylated FRET-peptides. Phosphorylation of FRET-peptides suppresses cleavage by the Development Reagent. Cleavage disrupts FRET between the donor (i.e., coumarin) and acceptor (i.e., fluorescein) fluorophores on the FRET-peptide, whereas uncleaved, phosphorylated FRET-peptides maintain FRET. A ratiometric method, which calculates the ratio (the Emission Ratio) of donor emission to acceptor emission after excitation of the donor fluorophore at 400 nm, is used to quantitate reaction progress, as shown in the equation below. Emission Ratio=Coumarin Emission(445 nm)/Fluorescein Emission(520 nm)
The inhibition of kinase activity of MNK1a was assessed using pre-activated GST-MNK1a. The 2×MKNK1 (MNK1) mixture is prepared in 50 mM HEPES pH 7.5, 0.01% BRIJ-35, 10 mM MgCl2, 4 mM MnCl2, 1 mM EGTA, 2 mM DTT. The final 10 μL Kinase Reaction consists of 13.5-54 ng MKNK1 (MNK1) and 2 μM Ser/Thr 07 in 50 mM HEPES pH 7.5, 0.01% BRIJ-35, 10 mM MgCl2, 2 mM MnCl2, 1 mM EGTA, 1 mM DTT. After the 1 hour Kinase Reaction incubation, 5 μL of a 1:32768 dilution of Development Reagent A is added.
The Test Compounds are screened in 1% DMSO (final) in the well.
All Peptide/Kinase Mixtures are diluted to a 2×working concentration in the MNK1 Kinase Buffer.
All ATP Solutions are diluted to a 4×working concentration in Kinase Buffer (50 mM HEPES pH 7.5, 0.01% BRIJ-35, 10 mM MgCl2, 1 mM EGTA).
Development Reagent Solution:
The Development Reagent is diluted in Development Buffer
Bar-coded Corning, low volume NBS, 384-well plate (Corning Cat. #3676)
1. 2.5 μL—4×Test Compound
2. 5 μL—2×Peptide/Kinase Mixture
5. 60-minute Kinase Reaction incubation at room temperature
6. 5 μL—Development Reagent Solution
8. 60-minute Development Reaction incubation at room temperature
9. Read on fluorescence plate reader and analyze the data
The following equations are used for each set of data points:
Correction for Background Fluorescence: FISample−FITCFI Ctl Emission Ratio (using values corrected for background fluorescence):Coumarin Emission (445 nm)/Fluorescein Emission (520 nm)
% Phosphorylation (% Phos): 1−((Emission Ratio×F100%)−C100%)/((C0%−C100%)+[Emission Ratio×(F100%−F0%)])*100
% Inhibition: 1−(% PhosSample/% Phos0% Inhibition Ctl)*100 FI=Fluorescence Intensity C100%=Average Coumarin emission signal of the 100% Phos. Control C0%=Average Coumarin emission signal of the 0% Phos. Control F100%=Average Fluorescein emission signal of the 100% Phos. Control F0%=Average Fluorescein emission signal of the 0% Phos. Control
SelectScreen® Kinase Profiling Service uses XLfit from IDBS. The dose response curve is curve fit to model number 205 (sigmoidal dose-response model).

[2] = biological target: MNK2a (pre-activated GST-MNK2a) (Homo sapiens (Human), UniProt Q9HBH9); assay: MNK2a in vitro kinase assay (assay 1), ADP-Glo; assay type: biochemical; details: read-out: Mnk2 IC50
Description: A. MNK2a In Vitro Kinase Assay (Assay 1)
The inhibition of kinase activity of MNK2a was assessed using pre-activated GST-MNK2a. The white, 384-well OptiPlate F plates were purchased from PerkinElmer. The ADP-Glo Kinase Assay (including ultra pure ATP) was purchased from Promega (V9103). Activated MNK2a was obtained as described in WO2011/104340. […] ID No. 5 of WO 2011/104340 by the C-terminal —CONH2 group, was purchased from Thermo Fisher Scientific. All other materials were of highest grade commercially available. Compounds are tested in either serial dilutions or single dose concentrations. The compound stock solutions are 10 mM in 100% DMSO The serial compound dilutions are prepared in 100% DMSO followed by 1:27.3 intermediate dilution in assay buffer. The final DMSO concentration in assay will be <3%.
In the 384-well plates 3 μl of test compound from the intermediate dilution is mixed with 4 μl of the activated MNK2 enzyme (final concentration of 10 nM) and 4 μl of the peptide (final concentration of 25 μM)/ultra pure ATP (final concentration of 20 μM), all dissolved in assay buffer. This step is followed by an incubation time of 90 min, then 10 μl of ADP Glo reagent are added, followed by 40 min of incubation. Then 20 μl of kinase detection reagent are admixed. The plates are sealed and after an incubation period of 30 min, the luminescence signal is measured in an Envision reader to determine the amount of produced ADP. All incubation steps are performed at room temperature.
The assay buffer consists of 20 mM HEPES, 2 mM DTT, 0.01% BSA, 20 mM MgCl2 and 0.1% Pluronic F-127.
The luminescent signal generated is proportional to the ADP concentration produced and is correlated with activated MNK2 activity. The analysis of the data is performed by the calculation of the percentage of ATP consumption of activated MNK2 in the presence of the test compound compared to the consumption of ATP in the presence of activated MNK2 without compound. (RLU(sample)−RLU(low control))*100/(RLU(high value)−RLU(low control))
[RLU=Relative Luminescence Units]
Values of more than 100% CTL are normally related to compound/sample specific physico-chemical properties (e.g. solubility, light absorbance, fluorescence).
IC50 values based on dose response curves are calculated with the AssayExplorer software.

MNK1a (pre-activated GST-MNK1a), sequence (Q9BUB5 other isoform, or with tags, fused parts or gaps): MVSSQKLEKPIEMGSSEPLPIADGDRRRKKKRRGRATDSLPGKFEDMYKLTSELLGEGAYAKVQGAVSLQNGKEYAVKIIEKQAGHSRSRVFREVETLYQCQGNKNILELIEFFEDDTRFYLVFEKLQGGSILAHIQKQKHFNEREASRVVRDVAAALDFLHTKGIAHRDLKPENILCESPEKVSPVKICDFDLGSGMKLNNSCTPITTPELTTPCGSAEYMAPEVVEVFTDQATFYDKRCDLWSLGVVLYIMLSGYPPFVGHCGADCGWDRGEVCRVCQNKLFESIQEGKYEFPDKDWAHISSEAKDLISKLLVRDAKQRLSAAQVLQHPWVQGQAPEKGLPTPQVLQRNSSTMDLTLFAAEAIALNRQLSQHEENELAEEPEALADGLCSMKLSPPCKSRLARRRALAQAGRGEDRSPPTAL
MNK2a (pre-activated GST-MNK2a), sequence (Q9HBH9 whole entry): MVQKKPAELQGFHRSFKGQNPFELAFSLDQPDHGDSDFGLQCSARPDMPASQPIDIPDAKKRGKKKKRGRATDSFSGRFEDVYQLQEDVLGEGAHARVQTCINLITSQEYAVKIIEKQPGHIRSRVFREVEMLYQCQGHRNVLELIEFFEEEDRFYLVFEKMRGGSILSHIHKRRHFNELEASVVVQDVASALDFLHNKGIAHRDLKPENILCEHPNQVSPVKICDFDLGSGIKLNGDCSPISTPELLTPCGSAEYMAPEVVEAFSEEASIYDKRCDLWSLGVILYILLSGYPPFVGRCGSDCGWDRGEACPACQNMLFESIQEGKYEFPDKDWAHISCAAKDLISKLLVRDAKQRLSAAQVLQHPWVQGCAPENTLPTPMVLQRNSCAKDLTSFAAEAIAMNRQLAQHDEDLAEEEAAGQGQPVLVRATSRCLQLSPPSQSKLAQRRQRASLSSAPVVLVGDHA

Structure (SMILES)	IC50 [1] [nM]	IC50 [2] [nM]	inhibition at 1 µM [1] [%]
COc1c(N=S2(=O)CCC2)cc2ncnc(Nc3cc4cn[nH]c4cc3OC(C)C)c2c1C [Example 2.27]	87	3.9	
COc1c(N=S(C)(C)=O)cc2ncnc(Nc3ccc(Cl)cc3O[C@H](C)C(=O)NCC(F)(F)F)c2c1C [Example 2.29]		2.6	96
COc1c(N=S(C)(=O)C(C)C)cc2ncnc(Nc3ccc(F)cc3O[C@@H]3CO[C@@H]4CCO[C@@H]43)c2c1C (stereo partly shown) [Example 2.31]		2.1	96
Cc1c(OCCN2CCN(C)C(=O)C2)c(N=S(C)(C)=O)cc2ncnc(Nc3ccc(F)cc3O[C@H](C)C(F)(F)F)c12 [Example 2.32]	65	4.1	
COc1c(N=S(C)(C)=O)cc2ncnc(Nc3ccc(F)cc3OC3CCOCC3)c2c1Cl [Example 2.34]		2	94
COc1c(N=S2(=O)CCCC2)cc2ncnc(Nc3ccc(F)cc3O[C@@H]3CO[C@H]4[C@@H]3OC[C@H]4OC)c2c1C [Example 2.36]	15	1.8	
COc1c(N=S(C)(C)=O)cc2ncnc(Nc3ccc(F)cc3O[C@H](C)C(=O)N[C@@H](C)C(F)(F)F)c2c1C [Example 2.37]		4.1	88
COc1c(N=S(C)(C)=O)cc2ncnc(Nc3ccc(F)cc3O[C@H]3COC[C@@H]3O)c2c1C [Example 2.38]	55	2	
COc1c(N=S2(=O)CCC2)cc2ncnc(Nc3ccc(Cl)cc3O[C@H](C)C(=O)NCC(F)(F)F)c2c1C [Example 2.39]	66	2.4	
COc1c(N=S(C)(=O)C2CC2)cc2ncnc(Nc3ccc(F)cc3O[C@@H]3CO[C@@H]4CCO[C@@H]43)c2c1C (stereo partly shown) [Example 2.43]		2.3	97
COc1c(N=S(C)(C)=O)cc2ncnc(Nc3ccc(F)cc3O[C@@H]3CO[C@H]4[C@@H]3OC[C@H]4OC)c2c1C [Example 2.45]	17	1.7	
COc1c(N=S2(=O)CCCC2)cc2ncnc(Nc3ccc(F)cc3O[C@H]3COC[C@@H]3O)c2c1C [Example 2.46]	37	2	
COc1c(N=S(C)(C)=O)cc2ncnc(Nc3cccnc3O[C@@H]3CO[C@@H]4CCO[C@@H]43)c2c1C [Example 2.49]		2.3	95
COc1c(N=S(C)(C)=O)cc2ncnc(Nc3ccc(F)cc3O[C@H]3CCOC3)c2c1C [Example 2.50]	44	2	
Cc1c(O)c(N=S(C)(C)=O)cc2ncnc(Nc3ccc(F)cc3O[C@H](C)C(F)(F)F)c12 [Example 2.51]		6.9	77
COc1c(N=S2(=O)CCCC2)cc2ncnc(Nc3ccc(F)cc3O[C@H](C)C(=O)NCC(F)(F)F)c2c1C [Example 2.52]		2.3	100
COc1c(N=S2(=O)CCCC2)cc2ncnc(Nc3ccc(F)cc3O[C@H](C)C(F)(F)F)c2c1C [Example 2.54]		1.6	91
COc1c(N=S2(=O)CCCC2)cc2ncnc(Nc3ccc(F)cc3O[C@@H]3CO[C@H]4[C@@H]3OC[C@H]4OC)c2c1Cl [Example 2.55]		1.6	104
COc1c(N=S2(=O)CCCC2)cc2ncnc(Nc3ccc(Cl)cc3O[C@H](C)C(=O)NCC(F)(F)F)c2c1C [Example 2.56]		2.7	97
COc1c(N=S2(=O)CCC2)cc2ncnc(Nc3ccc(F)cc3O[C@H]3CC[C@H](O)CC3)c2c1C [Example 2.58]	38	2.4	

Continued by falling IC50 [2], values first:

IC50 [1] [nM]	IC50 [2] [nM]	inhibition at 1 µM [1] [%]	Structure (SMILES)
	1.6	106	COc1c(N=S2(=O)CCCC2)cc2ncnc(Nc3ccc(F)cc3O[C@@H]3CO[C@@H]4CCO[C@@H]43)c2c1Cl [Example 2.33]
	1.6	106	COc1c(N=S2(=O)CCC2)cc2ncnc(Nc3ccc(F)cc3O[C@@H]3CO[C@H]4[C@@H]3OC[C@H]4OC)c2c1C [Example 2.41]
	1.6	105	COc1c(N=S2(=O)CCC2)cc2ncnc(Nc3ccc(F)cc3O[C@H](C)C(=O)N[C@@H](C)C(F)(F)F)c2c1C [Example 2.53]
74	1.5		COc1c(N=S2(=O)CCC2)cc2ncnc(Nc3ccc(F)cc3O[C@H](C)C(F)(F)F)c2c1C [Example 2.35]
41	1.4		COc1c(N=S2(=O)CCCC2)cc2ncnc(Nc3ccc(F)cc3O[C@H]3CC[C@H](O)CC3)c2c1C [Example 2.44]
28	1.4		COc1c(N=S(C)(C)=O)cc2ncnc(Nc3ccc(F)cc3O[C@H](C)C(=O)NCC(F)(F)F)c2c1Cl [Example 2.47]
	1.4	108	COc1c(N=S2(=O)CCC2)cc2ncnc(Nc3ccc(F)cc3O[C@@H]3CO[C@@H]4CCO[C@@H]43)c2c1Cl [Example 2.59]
	1.3	105	COc1c(N=S2(=O)CCNCC2)cc2ncnc(Nc3ccc(F)cc3O[C@@H]3CO[C@@H]4CCO[C@@H]43)c2c1C [Example 2.30]
16	1.3		COc1c(N=S(C)(C)=O)cc2ncnc(Nc3ccc(F)cc3O[C@@H]3CO[C@@H]4CCO[C@@H]43)c2c1Cl [Example 2.40]
22	1.3		COc1c(N=S2(=O)CCCC2)cc2ncnc(Nc3ccc(F)cc3O[C@H]3CCOC3)c2c1C [Example 2.48]
52	1.2		COc1c(N=S2(=O)CCC2)cc2ncnc(Nc3ccc(F)cc3O[C@@H]3CO[C@@H]4CCO[C@@H]43)c2c1C [Example 2.42]
22	1.1		COc1c(N=S2(=O)CCC2)cc2ncnc(Nc3ccc(F)cc3O[C@H]3CCOC3)c2c1C [Example 2.57]

— US10167296B2, “Sulfoximine substituted quinazolines for pharmaceutical compositions” (EVOTEC INTERNATIONAL GMBH, priority 2014, dated 2019)
